# Results reported in patent US4346094A, “3-Aryl-5-isothiazolecarboxylic acids and related compounds used to lower uric acid levels” (Eli Lilly and Company, priority 1980, dated 1982).
# Molecular target: T1, xanthine oxidase (Bos taurus, UniProt P80457)
# T1 construct: purchased Sigma Chemical Company, St. Louis, Mo; host or cells: milk (grade III, chromatographically purified)
# Experiment: in vitro xanthine oxidase assay (rate of uric acid formation from xanthine)
# Type: biochemical
# Conditions: not given
# Procedure: Since uric acid is produced by the oxidation of, first, hypoxanthine to xanthine and, second, of xanthine to uric acid via the enzyme, xanthine oxidase, an inhibitor of xanthine oxidase in vivo would obviously decrease the uric acid concentrations in the blood.
# Xanthine oxidase activity was measured at room temperature by the rate of uric acid formation from xanthine substrate. In a total volume of 1 ml., the incubation mixture contained 50 micromoles of potassium phosphate buffer at pH 7.4, 0.05 micromoles of xanthine and 0.01 units of enzyme preparation (chromatographically purified milk xanthine oxidase, grade III, obtained from Sigma Chemical Company, St. Louis, Mo.). The absorbence change at 292 nm was recorded by a Gilford recording spectrophotometer and the uric acid formed was calculated using an extinction coefficient of 12 mM^-1 Cm^-1 at 292 nm.
# T1 sequence (P80457 whole entry): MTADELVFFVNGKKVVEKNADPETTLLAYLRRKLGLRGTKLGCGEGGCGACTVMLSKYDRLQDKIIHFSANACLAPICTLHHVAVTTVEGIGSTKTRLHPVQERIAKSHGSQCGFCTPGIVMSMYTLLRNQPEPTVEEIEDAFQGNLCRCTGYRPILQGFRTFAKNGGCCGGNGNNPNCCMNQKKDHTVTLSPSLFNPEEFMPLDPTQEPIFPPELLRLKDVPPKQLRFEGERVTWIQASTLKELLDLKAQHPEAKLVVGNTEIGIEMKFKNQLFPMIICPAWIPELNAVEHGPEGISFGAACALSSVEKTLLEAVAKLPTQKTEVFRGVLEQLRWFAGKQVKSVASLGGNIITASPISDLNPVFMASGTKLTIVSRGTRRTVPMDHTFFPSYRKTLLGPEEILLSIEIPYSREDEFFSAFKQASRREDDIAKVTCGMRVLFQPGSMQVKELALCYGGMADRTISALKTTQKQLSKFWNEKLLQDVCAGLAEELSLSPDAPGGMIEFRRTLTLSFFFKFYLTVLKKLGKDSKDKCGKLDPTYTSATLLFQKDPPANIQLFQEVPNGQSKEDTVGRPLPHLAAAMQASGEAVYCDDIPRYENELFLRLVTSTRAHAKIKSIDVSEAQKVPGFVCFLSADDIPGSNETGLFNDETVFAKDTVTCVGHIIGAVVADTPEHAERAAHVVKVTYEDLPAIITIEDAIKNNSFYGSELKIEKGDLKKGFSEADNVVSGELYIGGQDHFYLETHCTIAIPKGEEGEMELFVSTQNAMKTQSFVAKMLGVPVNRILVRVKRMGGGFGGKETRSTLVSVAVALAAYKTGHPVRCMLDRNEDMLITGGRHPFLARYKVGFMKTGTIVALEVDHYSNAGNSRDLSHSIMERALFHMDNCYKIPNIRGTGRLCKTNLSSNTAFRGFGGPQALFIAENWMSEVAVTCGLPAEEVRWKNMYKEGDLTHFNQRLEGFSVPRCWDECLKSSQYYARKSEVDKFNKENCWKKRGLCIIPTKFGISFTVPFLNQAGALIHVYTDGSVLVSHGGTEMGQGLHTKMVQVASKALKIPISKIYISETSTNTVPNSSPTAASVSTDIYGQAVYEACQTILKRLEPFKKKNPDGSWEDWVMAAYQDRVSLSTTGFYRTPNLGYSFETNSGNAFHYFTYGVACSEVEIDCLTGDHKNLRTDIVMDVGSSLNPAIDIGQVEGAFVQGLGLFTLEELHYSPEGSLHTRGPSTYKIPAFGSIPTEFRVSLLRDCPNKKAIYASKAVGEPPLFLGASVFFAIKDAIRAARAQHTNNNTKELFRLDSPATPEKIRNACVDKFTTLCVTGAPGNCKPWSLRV
row,Structure (SMILES),IC50 [nM]
1,"O=C(O)c1snc(-c2cccc(C(F)(F)F)c2)c1I [R=3-CF3, X=I, 3-(3-trifluoromethylphenyl)-4-iodo-5-isothiazolecarboxylic acid]",238
2,"O=C(O)c1snc(-c2cccc(Cl)c2)c1Cl [R=3-Cl, X=Cl, 3-(3-chlorophenyl)-4-chloro-5-isothiazolecarboxylic acid]",69.3
3,"O=C(O)c1snc(-c2ccc(Cl)cc2)c1Br [R=4-Cl, X=Br, 3-(4-chlorophenyl)-4-bromo-5-isothiazolecarboxylic acid]",314

# Same assay, conditions: milk xanthine oxidase 0.01 units, 0.05 micromoles xanthine in 1 ml, pH 7.4, room temperature, 292 nm; read-out: I50 (concentration of drug which inhibits 50% of the oxidation of xanthine to uric acid by the xanthine oxidase preparation) (converted)
row,Structure (SMILES),IC50 [nM]
1,"Nc1c(-c2ccc3c(c2)OCO3)nsc1C(=O)O [3,4-methylenedioxy, 3-(1,3-benzodioxyl-5-yl)-4-amino-5-isothiazolecarboxylic acid]",492
2,"Nc1c(-c2cccs2)nsc1C(=O)O [Ar=2-thienyl, 3-(2-thienyl)-4-amino-5-isothiazolecarboxylic acid]",3310
3,"Nc1c(-c2cccnc2)nsc1C(=O)O [Ar=3-pyridinyl, 3-(3-pyridyl)-4-amino-5-isothiazolecarboxylic acid]",1490
4,"O=C(O)c1snc(-c2cccc(C(F)(F)F)c2)c1F [R=3-CF3, X=F, 3-(3-trifluoromethylphenyl)-4-fluoro-5-isothiazolecarboxylic acid]",68.7
5,"CNc1c(-c2cccc(C(F)(F)F)c2)nsc1C(=O)O [R=3-CF3, X=NHCH3, 3-(3-trifluoromethylphenyl)-4-methylamino-5-isothiazolecarboxylic acid]",562
6,"COc1ccc(-c2nsc(C(=O)O)c2N)cc1C [R=3-CH3, R^1=4-OCH3, 3-(4-methoxy-3-methylphenyl)-4-amino-5-isothiazolecarboxylic acid]",151
7,"Cc1cccc(-c2nsc(C(=O)O)c2N)c1 [R=3-CH3, R^1=H, 3-(3-tolyl)-4-amino-5-isothiazolecarboxylic acid]",640
8,"Cc1cccc(-c2nsc(C(=O)O)c2Cl)c1 [R=3-CH3, X=Cl, 3-(3-tolyl)-4-chloro-5-isothiazolecarboxylic acid]",134
9,"Nc1c(-c2ccc(Cl)c(Cl)c2)nsc1C(=O)O [R=3-Cl, R^1=4-Cl, 3-(3,4-dichlorophenyl)-4-amino-5-isothiazolecarboxylic acid]",214
10,"Nc1c(-c2cccc(Cl)c2)nsc1C(=O)O [R=3-Cl, R^1=H, 3-(3-chlorophenyl)-4-amino-5-isothiazolecarboxylic acid]",267
11,"O=C(O)c1snc(-c2cccc(Cl)c2)c1Br [R=3-Cl, X=Br, 3-(3-chlorophenyl)-4-bromo-5-isothiazolecarboxylic acid]",81.6
12,"O=C(O)c1cc(-c2cccc(Cl)c2)ns1 [R=3-Cl, X=H, 3-(3-chlorophenyl)-5-isothiazolecarboxylic acid]",334
13,"O=C(O)c1snc(-c2cccc(Cl)c2)c1I [R=3-Cl, X=I, 3-(3-chlorophenyl)-4-iodo-5-isothiazolecarboxylic acid]",903
14,"COc1ccc(-c2nsc(C(=O)O)c2N)cc1F [R=3-F, R^1=4-OCH3, 3-(3-fluoro-4-methoxyphenyl)-4-amino-5-isothiazolecarboxylic acid]",67.1
15,"Nc1c(-c2cccc(F)c2)nsc1C(=O)O [R=3-F, R^1=H, 3-(3-fluorophenyl)-4-amino-5-isothiazolecarboxylic acid]",1260
16,"O=C(O)c1snc(-c2cccc(F)c2)c1Cl [R=3-F, X=Cl, 3-(3-fluorophenyl)-4-chloro-5-isothiazolecarboxylic acid]",116
17,"COc1ccc(-c2nsc(C(=O)O)c2N)cc1OC [R=3-OCH3, R^1=4-OCH3, 3-(3,4-dimethoxyphenyl)-4-amino-5-isothiazolecarboxylic acid]",410
18,"COc1cc(OC)cc(-c2nsc(C(=O)O)c2N)c1 [R=3-OCH3, R^1=5-OCH3, 3-(3,5-dimethoxyphenyl)-4-amino-5-isothiazolecarboxylic acid]",89.2
19,"COc1cccc(-c2nsc(C(=O)O)c2N)c1 [R=3-OCH3, R^1=H, 3-(3-methoxyphenyl)-4-amino-5-isothiazolecarboxylic acid]",1160
20,"COc1cccc(-c2nsc(C(=O)O)c2Cl)c1 [R=3-OCH3, X=Cl, 3-(3-anisyl)-4-chloro-5-isothiazolecarboxylic acid]",108
21,"COc1cccc(-c2cc(C(=O)O)sn2)c1 [R=3-OCH3, X=H, 3-(3-anisyl)-5-isothiazolecarboxylic acid]",3740
22,"COc1cccc(-c2nsc(C(=O)O)c2I)c1 [R=3-OCH3, X=I, 3-(3-anisyl)-4-iodo-5-isothiazolecarboxylic acid]",1720
23,"Nc1c(-c2ccc(Br)cc2)nsc1C(=O)O [R=4-Br, R^1=H, 3-(4-bromophenyl)-4-amino-5-isothiazolecarboxylic acid]",2760
24,"Nc1c(-c2ccc(C(F)(F)F)cc2)nsc1C(=O)O [R=4-CF3, R^1=H, 3-(4-trifluoromethylphenyl)-4-amino-5-isothiazolecarboxylic acid]",624
25,"Cc1ccc(-c2nsc(C(=O)O)c2N)cc1 [R=4-CH3, R^1=H, 3-(p-tolyl)-4-amino-5-isothiazolecarboxylic acid]",1200
26,"Cc1ccc(-c2nsc(C(=O)O)c2Cl)cc1 [R=4-CH3, X=Cl, 3-(4-tolyl)-4-chloro-5-isothiazolecarboxylic acid]",315
27,"Nc1c(-c2ccc(Cl)cc2)nsc1C(=O)O [R=4-Cl, R^1=H, 3-(4-chlorophenyl)-4-amino-5-isothiazolecarboxylic acid]",2750
28,"O=C(O)c1snc(-c2ccc(Cl)cc2)c1Cl [R=4-Cl, X=Cl, 3-(4-chlorophenyl)-4-chloro-5-isothiazolecarboxylic acid]",365

# The remaining lines, values ahead:
row,IC50 [nM],Structure (SMILES)
1,1960,"O=C(O)c1cc(-c2ccc(Cl)cc2)ns1 [R=4-Cl, X=H, 3-(4-chlorophenyl)-5-isothiazolecarboxylic acid]"
2,2740,"O=C(O)c1snc(-c2ccc(Cl)cc2)c1I [R=4-Cl, X=I, 3-(4-chlorophenyl)-4-iodo-5-isothiazolecarboxylic acid]"
3,1600,"Nc1c(-c2ccc(F)cc2)nsc1C(=O)O [R=4-F, R^1=H, 3-(4-fluorophenyl)-4-amino-5-isothiazolecarboxylic acid]"
4,202,"O=C(O)c1snc(-c2ccc(F)cc2)c1Cl [R=4-F, X=Cl, 3-(4-fluorophenyl)-4-chloro-5-isothiazolecarboxylic acid]"
5,106,"CCOc1ccc(-c2nsc(C(=O)O)c2N)cc1 [R=4-OC2 H5, R^1=H, 3-(4-ethoxyphenyl)-4-amino-5-isothiazolecarboxylic acid]"
6,86.2,"CCCOc1ccc(-c2nsc(C(=O)O)c2N)cc1 [R=4-OC3 H7, R^1=H, 3-(4-propoxyphenyl)-4-amino-5-isothiazolecarboxylic acid]"
7,559,"COc1ccc(-c2nsc(C(=O)O)c2N)cc1 [R=4-OCH3, R^1=H, 4-amino-3-(4-methoxyphenyl)-5-isothiazolecarboxylic acid]"
8,51.9,"COc1ccc(-c2nsc(C(=O)O)c2Cl)cc1 [R=4-OCH3, X=Cl, 3-(4-anisyl)-4-chloro-5-isothiazolecarboxylic acid]"
9,276,"COc1ccc(-c2cc(C(=O)O)sn2)cc1 [R=4-OCH3, X=H, 3-(4-anisyl)-5-isothiazolecarboxylic acid]"
10,68.3,"CC(C)Oc1ccc(-c2nsc(C(=O)O)c2N)cc1 [R=4-OCH(CH3)2, R^1=H, 3-(4-isopropoxyphenyl)-4-amino-5-isothiazolecarboxylic acid]"
11,2130,"Nc1c(-c2ccccc2)nsc1C(=O)O [R=H, R^1=H, 3-phenyl-4-amino-5-isothiazolecarboxylic acid]"
12,225,"O=C(O)c1snc(-c2ccccc2)c1Cl [R=H, X=Cl, 3-phenyl-4-chloro-5-isothiazolecarboxylic acid]"
13,2340,"O=C(O)c1cc(-c2ccccc2)ns1 [R=H, X=H, 3-phenyl-5-isothiazolecarboxylic acid]"
14,203,"O=C(O)c1snc(-c2ccccc2)c1O [R=H, X=OH, 3-phenyl-4-hydroxy-5-isothiazolecarboxylic acid]"
